Test results published in patent US10292597B2, “Assessing endothelial function and providing calibrated UFMD data using a blood pressure cuff” (The Regents of the University of California, priority 2015, dated 2019).
Entries after “also recorded” stand apart in the source; their conditions may differ.

What was measured:
NO synthase = assay: Single pulse waveforms from the pressure cuff after endothelial stimulation, with NO synthase inhibitor; format: in vivo, human; settings: cuff inflated to 70 mm Hg; FIG. 3
Excerpt: Both the amplitude and slope of the rising edge of the pulse increase markedly after endothelial stimulation.
In an artery with intact endothelial function, both pulse height (maximal cross-sectional arterial area) and compliance (maximum slope of the rising edge) increase markedly over baseline. […] FIG. 4 illustrates how a five minute cuff occlusion and the ensuring reactive hyperemia lead to major increases in area change per pulse and the maximum derivative of the area per pulse. Both metrics return to baseline levels after 20 minutes. FIG. 5 confirms the repeatability of the protocol by illustrating the effects of a series of two cuff occlusion periods. We see from FIG. 6 that only a small slow drift in the measured quantities occurs when no reactive hyperemic stimulus is applied.
A stimulus is then applied to the subject. Any of a number of stimuli expected to alter endothelial function are contemplated. Such stimuli include, for example, occlusion of blood flow, and/or application of one or more drugs to the subject. Illustrative drugs include, for example, drugs that act as NO agonists (e.g. acetylcholine), β2-adrenergic agonists such as albuterol, acoustic/mechanical tissue vibration, transcutaneous low frequency ultrasound (see, e.g., Iida et al. (2006) J. Amer. Coll. Cardiol., 48(3): 532-537), and the like. […]

brachial artery = assay: Cuff-based measurement of pulse amplitude (proportional to arterial area) before and after a stimulus; format: in vivo, human
Method: Three individuals in the age-range of 28-38 were examined. All subjects had Framingham risk scores of 1% or less, and had no history of cardiovascular disease. Each individual was assessed at least three times before and after RH induced by five minutes of suprasystolic cuff occlusion. At least one additional measurement was made using the same protocol, except without cuff inflation. Sensitivity to a 0.4 mg dose of sublingual NG was assessed three times in two individuals.
Sensitivity to a 0.4 mg dose of sublingual NG was assessed three times in two individuals. In the analysis that follows, all of the datasets are pooled by stimulus. This addresses the question: Can the method measure changes in arterial tone due to vasorelaxatory stimuli and with what sensitivity?
A single quantity relating to the recorded pressure data, the pulse amplitude, was studied and it was posited that this is proportional to the arterial area. During the post stimulus interval, pressure data from the cuff were recorded approximately every 80 seconds, for a period of 30 seconds. During each recording interval, the cuff was inflated to 70 mm Hg, which was always below the measured diastolic pressure of the subject. To quantify the observed response, the mean of the pulse quantity (in this case, amplitude) during the response interval was divided by the mean value of the same quantity during the baseline interval. FIG. 10 illustrates the results.
In Table 2, the maximum response for each stimulus is calculated and the statistical significance of the change relative to the NS case (one-tail Student's t test) is evaluated. Values of p<0:05 were considered significant.
(iii) The cuff is inflated to a value Pm, which must be less than the mean arterial pressure, for a period Tm=30 s. During this time interval, we measure and record the pressure fluctuations in the cuff.
v) The stimulus is applied. This is either 1-5 min of cuff occlusion to suprasystolic pressure Ps (for studies of endothelial function) or a dose of sublingual NG (for studies of endothelium-independent vasodilation).
(vi) After Tp=45 s have elapsed following cuff release or drug administration, a series of up to Nr=10 repeat measurement intervals ensue. In each interval, the cuff is inflated to Pm for Tm seconds, after which it is deflated for Tw seconds. This large number of repeat measurements (Nr) is required only when one wishes to record the return of the vessel toward baseline.
(viii) Each post-stimulus response is then compared to the average baseline response, to yield the area-based cFMD metric (Equation 2) defined above. […]
(iv) The maximum of the cFMD metric in Equation 2, analogous to that used for uFMD, expressed directly as a function of the measurement data, is calculated as […]

arterial smooth muscle = settings: cited from earlier work

| SMILES | effect on increase of pulse amplitude and rising-edge slope after endothelial stimulation (NO synthase) | change in metric, NG vs. NS (brachial artery; 400 μg sublingual vs zero dose (no stimulus)) [%] | cDmax % (brachial artery; 400 μg sublingual, Table 5) [%] | Mean ± SEM of maximum response over all data sets (dilation response) (brachial artery; 400 μg sublingual, pooled data sets, Table 5) | Mean ± SEM of maximum Response over all data sets (amplitude response, response/baseline) (brachial artery; 0.4 mg sublingual, cuff inflated to 70 mm Hg, pooled data sets, Table 2) | smooth muscle dilation elicited (arterial smooth muscle; 400 μg sublingual dose, Feldman et al. (1979), Adams et al. (1998)) | typical dilation due to nitroglycerin (arterial smooth muscle; observed at Ptm=PS) |
| --- | --- | --- | --- | --- | --- | --- | --- |
| COC(=O)[C@@H](N)CCCNC(=N)N[N+](=O)[O-] [L-NAME] | greatly attenuates this response; also recorded: greatly attenuated | – | – | – | – | – | – |
| O=[N+]([O-])OCC(CO[N+](=O)[O-])O[N+](=O)[O-] [NG, Nitroglycerin] | – | 70 | 70 | 1.70 ± 0.036 | 1.70 ± 0.036 | maximal smooth muscle dilation | ≈ 20% |
